Measured values reported in patent publication US20240317791A1 (priority 2021, published 2024).
Values after ≈ are worked out from the molar mass of the structure shown. Where two headings read alike, the source gives them in different places.

Experiments:
rat erythrocytes = settings: cited from earlier work
Candida sp. = settings: cited from earlier work
Mucor sp. = settings: 4 strains of Mucor sp.; cited from earlier work
Sporothrix schenkii = settings: 1 strain of Sporothrix schenkii; cited from earlier work
Candida auris = assay: MIC determination against clinical isolates of Candida auris (CLSI M27, 4th edition); assay type: cell-based; settings: Candidozyma auris, read-out: MIC values
Description: (§1) MIC: Minimum Inhibitory Concentration (MIC) is defined as the lowest concentration of an antimicrobial ingredient that is bacteriostatic.
(§2) Testing has been performed in triplicates for each isolate.

Aspergillus spp. = settings: 13 strains of Aspergillus spp.; cited from earlier work
Penicillium spp. = settings: 5 strains of Penicillium spp.; cited from earlier work
[1] = rats, cited from earlier work
Rhizopus oryzae = assay: MIC determination against clinical isolates of the order Mucorales (CLSI M27, 4th edition); assay type: cell-based; settings: Rhizopus arrhizus, strain 2086, clinical strain
Description: as §1, §2

Rhizopus microsporus = assay: as above; assay type: cell-based
Description: as §1, §2

Candida albicans = settings: cited from earlier work
Paecilomyces variotii = settings: 2 strains Paecilomyces variotii; cited from earlier work
Mucor circinelloides = assay: MIC determination against ATCC and clinical isolates of the order Mucorales (CLSI M27, 4th edition); assay type: cell-based
Description: as §1, §2

[2] = single intravenous administration, amcipatricin diascorbate 1.25 mg/kg, amphotericin B 1 mg/kg

In the case of `CNc1ccc(C(=O)CC(O)CC[C@H](C)C2OC(=O)C[C@H](O)CC(=O)C[C@H](O)C[C@H](O)C[C@H](O)C[C@H](O)C[C@]3(O)C[C@H](O)[C@@H](C(=O)NCCN(C)C)C(C[C@@H](OC4OC(C)C(O)C(NC(=O)CN(C)C)C4O)/C=C/C=C/C=C/C=C\C=C/C=C/C=C/[C@@H]2C)O3)cc1` (stereo partly drawn) [Amcipatricin diascorbate, Candicidin D, 18-decarboxy-40-demethyl-3,7-dideoxo-N3′-[(dimethylamino)acetyl]-18-[[[2-(dimethylamino)ethyl]-amino]carbonyl]-3,7-dihydroxy-N47-methyl-5-oxo-, cyclic 15,19-hemiacetal, compound with L-ascorbic acid (1:2)], the “haemolytic minimum concentration against rat erythrocytes” value (rat erythrocytes) is listed as 18 mg/mL, the “drug concentrations inhibiting conversion from yeast to mycelial form” value (Candida sp.) is listed as 0.25 to 0.62 mg/L and the “fungicidal activity compared to amphotericin B” value (Mucor sp.) is listed as “most fungicidal”. For the same compound, the MFC (Sporothrix schenkii) was 19.2 µg/mL (≈ 15 µM), the MIC (Candida auris; strain I.2 (No 2), clade I/India) was 2 µg/mL (≈ 1.56 µM) and the MIC (Candida auris; strain I.3 (No 3), clade I/India) was 2 µg/mL (≈ 1.56 µM). It also gave an MIC (Candida auris; strain I.4 (No 4), clade I/India) of 2 µg/mL (≈ 1.56 µM), an MIC (Candida auris; strain II.1 (No 5), clade II/Japan) of 2 µg/mL (≈ 1.56 µM) and an MIC (Candida auris; strain II.2 (No 1), clade II/India) of 2 µg/mL (≈ 1.56 µM). The MIC (Candida auris; strain III.7 (No 12), clade III/Switzerland) was 1 µg/mL (≈ 0.78 µM), the MIC (Candida auris; strain III.8 (No 13), clade III/Israel) was 1 µg/mL (≈ 0.78 µM) and the MIC (Candida auris; strain III.9 (No 14), clade III/Israel) was 1 µg/mL (≈ 0.78 µM). It also gave an MIC (Candida auris; strain IV.1 (No 15), clade IV/Colombia) of 2 µg/mL (≈ 1.56 µM), an MIC (Candida auris; strain IV.10 (No 7), clade IV/Israel) of 2 µg/mL (≈ 1.56 µM) and an MIC (Candida auris; strain IV.11 (No 8), clade IV/Israel) of 1 µg/mL (≈ 0.78 µM). For the same compound, the MIC (Candida auris; strain IV.12 (No 9), clade IV/Israel) was 1 µg/mL (≈ 0.78 µM), the MIC (Candida auris; strain IV.13 (No 10), clade IV/Israel) was 2 µg/mL (≈ 1.56 µM) and the MIC (Candida auris; strain IV.14 (No 11), clade IV/Israel) was 2 µg/mL (≈ 1.56 µM). For the same compound, the MIC (Candida auris; strain IV.2 (No 16), clade IV/Colombia) was 2 µg/mL (≈ 1.56 µM), the MIC (Candida auris; strain IV.3 (No 17), clade IV/Colombia) was 2 µg/mL (≈ 1.56 µM) and the MIC (Candida auris; strain IV.4 (No 18), clade IV/Colombia) was 2 µg/mL (≈ 1.56 µM). It also gave an MIC (Candida auris; strain IV.5 (No 19), clade IV/Colombia) of 2 µg/mL (≈ 1.56 µM), an MIC (Candida auris; strain IV.6 (No 20), clade IV/Colombia) of 2 µg/mL (≈ 1.56 µM) and an MIC (Candida auris; strain IV.7 (No 21), clade IV/Colombia) of 2 µg/mL (≈ 1.56 µM). The MIC (Candida auris; strain IV.8 (No 22), clade IV/Colombia) was 2 µg/mL (≈ 1.56 µM), the MIC (Candida auris; strain IV.9 (No 6), clade IV/Israel) was 2 µg/mL (≈ 1.56 µM) and the “geometric means of the minimum fungicidal concentrations” value (Aspergillus spp.) was 12.53 µg/mL. For the same compound, the “geometric means of the minimum fungicidal concentrations” value (Penicillium spp.) was “about 12 μg/mL”, the “AUC(0-00)” value ([1]; multiple administration 1.25 mg/kg/day for 7 days, intravenous, seventh day, serum) was 72100 ng·h/mL and the serum elimination half-life ([1]; multiple administration 1.25 mg/kg/day for 7 days, intravenous, seventh day) was 41.4 h. The “area under the curve to infinity (AUC(0-∞))” value [1, 2] was 35520 ng·h/mL, the elimination half-lives [1, 2] was 22.15 h and the tissue distribution ([1]; single intravenous administration) was “higher uptake by the kidneys, followed by the liver, spleen and lungs”. It also gave an MIC (Rhizopus oryzae) of 4 µg/mL (≈ 3.12 µM), an MIC (Rhizopus microsporus; strain 3315, clinical strain) of 2 µg/mL (≈ 1.56 µM) and an MIC (Rhizopus microsporus; strain 3435, clinical strain) of 4 µg/mL (≈ 3.12 µM). For the same compound, the “fungicidal minimum inhibitory concentration against Candida albicans” value (Candida albicans) was 0.0075 µg/mL, the “fungicidal activity compared to amphotericin B” value (Paecilomyces variotii) was “most fungicidal” and the MIC (Mucor circinelloides; ATCC24905, strain ATCC 24905, ATCC strain) was 4 µg/mL (≈ 3.12 µM). It also gave an MIC (Mucor circinelloides; strain 2109, clinical strain) of 4 µg/mL (≈ 3.12 µM), an MIC (Mucor circinelloides; strain 2707, clinical strain) of 4 µg/mL (≈ 3.12 µM) and an MIC (Mucor circinelloides; strain 4280, clinical strain) of 4 µg/mL (≈ 3.12 µM).
